Test system: AGEs production (BSA + Methylglyoxal)
Test: Inhibition of AGEs production: co-incubation with BSA and MGO, fluorescence read-out
Assay type: biochemical
Settings: Compound concentration 1mg/mL
Description: Bovine serum albumin (BSA) can interact with Methylglyoxal (MGO) to produce AGEs. The compound to be tested was co-incubated with BSA and MGO, and the level of the AGEs production was determined through detecting change of fluorescence value in the system, to thereby evaluate whether or not the compound had inhibitory effect on the AGEs production. […]
With reference to the method of Test Example 1, the inhibitory effect of the AGEs inhibitory compositions of Examples 1-3 on AGEs production was examined. The test results were as follows: Table 13 Inhibitory effect of the AGEs inhibitory compositions on AGEs production

N=C(N)NN [Aminoguanidine]
AGEs production inhibition rate % (Table 1, bilberry extracts with different anthocyanin contents): 101.1% | AGEs production inhibition rate % (Table 9, 7 samples): 101.1%

Cc1ncc(C[n+]2csc(CCO)c2C)c(N)n1 [Vitamin B1]
AGEs production inhibition rate % (Table 9, 7 samples): 87.3%

Cc1cc2nc3c(=O)[nH]c(=O)nc-3n(C[C@H](O)[C@H](O)[C@H](O)CO)c2cc1C [Vitamin B2]
AGEs production inhibition rate % (Table 9, 7 samples): 94.3%

Cc1ncc(CO)c(CO)c1O.Cl [Vitamin B6]
AGEs production inhibition rate % (Table 9, 7 samples): 77.6%

Reference: EP3689361A1, “APPLICATION OF CRANBERRY OR EXTRACT THEREOF IN PREPARATION OF MEDICATIONS OR HEALTH-CARE FOOD FOR TREATING, DELAYING OR ALLEVIATING AGES-RELATED DISEASES” (BY-Health Co., Ltd., priority 2018, dated 2020)
